Measured values as given in patent US20180318383A1, “PEPTIDE HAVING NEURONAL LOSS PREVENTION AND REGENERATION EFFECTS, AND COMPOSITION CONTAINING SAME” (GEMVAX & KAEL CO., LTD., priority 2015, published 2018).

How the values were obtained:
[1] = system: NSCs; test: NSC proliferation (BrdU and CFU assays); assay type: cell-based, rat; conditions: 48 hours, BrdU
Procedure: NSCs were treated with different concentrations of PEP1 and 20 μM Aβ25-30 for 48 hours. Afterward, NSCs were cultured in bromodeoxyuridine (BrdU)-labeled media for 5 hours and observed using a kit. Cell division was evaluated by measuring absorbance at 370 nm and reference absorbance at 492 nm. All results were normalized based on a cell-free well.
A CFU assay was carried out by the following method. Briefly, 0.25×10^5 NSCs were plated in a 6-well plate, and treated with 20 μM Aβ25-30 and then with PEP1 at 1, 10 or 50 μM for 48 hours. The cells were washed with DPBS, and then the medium was exchanged with a fresh cell culture medium. Fourteen days later, the cells were washed again with DPBS, and stained with 0.5% crystal violet dissolved in methanol for 30 minutes at room temperature. Following staining, the plate was washed with DPBS and then dried. The number of colonies was observed using a stereoscopic microscope, and among these colonies, those smaller than 2 mm or faintly stained were removed.

[2] = system: GFAP; test: GFAP expression in 3XTg-AD mice (western blotting); assay type: in vivo; conditions: hippocampus and whole brain; s.c. three times a week for two months; vs control and Donepezil, same amount
Procedure: (§1) To test the efficacy of PEP1 on AD, AD transgenic mice (3XTg-AD) were purchased from Jackson Laboratory. Genetic characteristics of the transgenic mice are as follows: B6; 129-Psen1tm1Mpm Tg(APPSwe, tauP301L)1Lfa/Mmjax. […] One week after mice were confirmed as pregnant, new mice were delivered and weaned for 3 weeks. Two weeks later, mature mice were obtained.
(§2) During the preliminary breeding and the entire period of the experiment, a temperature was maintained at 23±2° C. and a relative humidity was maintained at 60±10%, and then the mice were raised under a 12-hour dark/light cycle. Experimental animals were divided into five groups, and each group included 10 animals. The divided experimental groups are as follows. […]
(§3) The PEP1, physiological saline, donepezil and scramble peptide were subcutaneously injected at each concentration three times a week for two months from the age of 12 months, and then two months after the injection, cognitive/memory behavior tests (passive avoidance test and Y maze test) were performed to examine a degree of improvement in cognitive function and memory function. After the brain was extracted to separate the hippocampus, the amounts of amyloid beta in the hippocampus and the whole brain, and the amounts of an amyloid beta oligomer and NFT generated by tau hyperphosphorylation were determined by western blotting and immunostaining. […]

[3] = system: AD transgenic mice (3XTg-AD); test: Passive avoidance test; assay type: in vivo
Procedure: as §1, §2
as §3, with “[…],” for “scramble peptide were subcutaneously injected at each concentration three times a week for two months from the age of 12 months,”

EARPALLTSRLRFIPK (homo sapiens) [PEP1, hTERT-derived peptide consisting of 16 amino acids, telomerase location [611-626]]
proliferation of NSCs ([1]; 20 μM Aβ25-35 + PEP1 up to 100 μM, vs 20 μM Aβ25-35 only, CFU): gradually increased | proliferation ([1]; NSCs, PEP1 alone 0-200 μM, up to 100 μM): not influenced | GFAP [2]: reduced | avoidance ability (passive avoidance test) ([3]; 3XTg-AD mice, treated from age 12 months, tested two months after injection, vs control and Donepezil): excellent avoidance ability | time and frequency of staying in the bright room (passive avoidance test) ([3]; severe AD models, 20-month-old or older 3XTg-AD mice, PEP1 1 mg/kg s.c., vs physiological saline): increased
